The values below come from patent publication US6689777B2 (Kenneth S. Warren Institute, priority 2001, dated 2004).

For one test, the system named is P. falciparum. The test is described as follows: P. falciparum growth in culture ([3H]-hypoxanthine incorporation). The test is classed as cell-based. To be noted: read-out: IC50 vs. P. falc. The method, then: To determine the effectiveness of the compounds of the present invention against the erythrocytic stage of the malarial parasite, P. falciparum was grown in human erythrocyte suspensions and maintained at 37° C. in candle jars according to the method of Trager and Jensen (15,16). Parasites were stage-synchronized by incubating mainly ring-stage infected erythrocytes in 5% sorbitol for 10 minutes at room temperature (17). Cultures undergo one growth cycle (2 days) before use. Strains used include the chloroquine sensitive strains D10 and HB3, and the chloroquine resistant isolates Dd2 and FCR.
Parasite growth was determined by measuring incorporation of [^3H]-hypoxanthine into the nucleic acids of the parasite (18). Effects of the compounds of the present invention on parasite growth was determined by measuring the reduction in incorporation of radiolabel as compared to controls. Briefly, assays are performed in 96-well microtiter plates. After 24 h of candle jar incubation at 37° C., [^3H]-hypoxanthine is added to each well. After 18 h the plates are harvested onto glass fiber filter 96 well plates using a cell harvester, dried, and the amount of radioactivity is determined. Drug IC50 values (molar concentration which decreases [^3H]-hypoxanthine incorporation by 50% as compared to drug-free controls) are calculated by extrapolation of the log dose-response curves using curve fitting software (Origin, Microcal Software, Northampton, Mass.).
Parasites were grown in A^+ human erythrocyte suspensions using RPMI-1640 (GIBCO, Gaithersburg, Md.) medium supplemented by 25 mM HEPES (pH 7.35), 0.2% NaHCO3 (23 mM), 0.2% (D)-Glucose and 10% human A^+ plasma and maintained at 37° C. in candle jars according to the method of Trager and Jensen (20,21) Parasites are stage synchronized by incubating mainly ring-stage infected erythrocytes in 5% sorbitol for 10 minutes at room temperature (22). Cultures undergo one growth cycle (2 days) before use. Strains used include the chloroquine sensitive strains D10 and HB3, and the chloroquine resistant isolates Dd2 and FCR.
Parasite growth was determined by measuring incorporation of [^3H]-hypoxanthine into the nucleic acids of the parasite as previously described (23). Effects of the compounds of the present invention on parasite growth was determined by measuring the reduction in incorporation of radiolabel as compared to controls. Briefly, assays were performed in 96-well microtiter plates, each well containing 200 μl of synchronized ring-stage infected erythrocytes in complete media and 50 μl of drug dilution or solvent. The final hematocrit was 1.5% and percent parasitemias range from 2-8%. After 24 h of candle jar incubation at 37° C., 2.5 μCi of [^3H]-hypoxanthine (17 Ci/mmol, Amersham, Arlington Heights, Ill.) in RPMI-1640 media supplemented with 25 mM HEPES (pH 7.35), 0.2% NaHCO3 (23 mM), 0.2% (D)-Glucose is added to each well. After 18 h the plates were harvested onto glass fiber filter 96 well plates using a cell harvester, dried, and 25 μl scintillation acid added per well. The, amount of radioactivity was determined. Drug IC50 values (molar concentration which decreases [^3H]-hypoxanthine incorporation by 50% as compared to drug-free controls) are calculated by extrapolation of the log dose-response curves using curve fitting software (Origin, Microcal Software, Northampton, Mass.). The effects on parasite grown by aromatic guanyllhydrazones, bisguanylhydrazones, naphthothiazolium salts, and other compounds of the instant invention, together with data on hemozoin depolymerization from Example 5, are shown in tables 1 through 4, respectively.

Another test deals with synthetic hemozoin. The test is described as follows: Depolymerization of synthetic hemozoin in vitro. It is filed as biochemical. The conditions noted are these: 50 mM test compound, acetate buffer pH 5.0, 37° C., 16 hours. The method, then: This activity is evaluated by incubating a suspension of monomer-free hemozoin at 37° C. with compounds of the present invention for 16 hours. After incubation, hemozoin is separated from any solubilized heme and soluble heme oligomers, the oligomers depolymerized, and the heme present in the supernatants determined.
The synthesis of synthetic hemozoin is carried out as previously described (26). In brief, 60 μmoles of hematin was dissolved in 8 ml of 0.1N NaOH. Following dissolution 49 mmoles of glacial acetic acid was added and the suspension heated at 70° C. overnight. The precipitate was then washed extensively with LPS-free water. In order to remove unreacted heme the precipitate was extracted with 0.1M sodium bicarbonate (pH 9.1) for three hours. The remaining insoluble material was recovered by centrifugation, resuspended in EtOH and transferred to sterile Eppendorf tubes. The material was washed several times in EtOH and finally resuspended in LPS-free double-distilled H2O. The hemozoin preparation was then tested for endotoxin by using the Limulus Amebocyte Lysate test following manufacturer's instructions. Although the preparation of LPS-free hemozoin from native or synthetic sources is not critical for in vitro depolymerization studies, it is critical for studies involving monocytes and animals (see Examples below). Small amounts of LPS can evoke a considerable cytokine response and interfere with interpretation of results. The amount of heme in the final product was determined from a small aliquot using the pyridine-hemochrome method as previously described (26). The preparations are stored at 4° C. until used.
A suspension of monomer-free hemozoin (equivalent to 2 mM free heme) as prepared above was incubated at 37° C. with […] test compound in total volume of 500 μl in acetate buffer (pH: 5.0) in siliconized Eppendorf tubes (Brinkmann Instruments, Westbury, N.Y.) for 16 hours. A control sample containing distilled H2O instead of hemozoin was included. The samples were centrifuged at 14,000 rpm (Eppendorf centrifuge model 5415C, Brinkmann Instruments, Westbury, N.Y.) for 20 min; then 225 μl supernatant was diluted in 175 μl acetate buffer (pH 5.0). Another 225 μl was added to 175 μl 0.5 M NaOH to dissolve possible oligomeric depolymerization products to monomers. Half of the pellet was washed twice for 2.5 hr in 200 μl 2.5% SDS (v/v) in dH2O, the other half was washed twice in 200 μl HCO3^− buffer (pH: 9.1). Both sample supernatants and SDS and HCO3^− buffer supernatants were centrifuged 14,000 rpm for 20 min. and supernatants were added to 10 μl sodium dithionite (200 mg/ml dH2O) to reduce the heme monomers in solution to Fe^2+. All samples were measured in triplicate at 540 nm (Model UV1601 spectrophotometer, Shimradzu Corp, Columbia, Md.). The OD obtained from the blind sample was subtracted from the OD of the hemozoin containing sample.

Setting [1] is: Table 2, aromatic bisguanylhydrazones, growth in culture, [3H]-hypoxanthine incorporation.
Where [2] appears, read: Table 1, aryl monoguanylhydrazones, growth in culture, [3H]-hypoxanthine incorporation.

Structures are written as SMILES. Counter-ions that a name gives are not always drawn. Like-named read-outs stand apart in the source and are kept apart here.

In the case of `CC(=NNC(=N)N)c1cccc(C(C)=NNC(=N)N)c1.Cl.Cl` [2,2′-(1,3-phenylenediethylidyne)bis(hydrazinecarboximidamide) dihydrochloride], in the test on P. falciparum (setting [1]), the half-inhibitory concentration (IC50) is 830 nM. The “% depol. hemoz.” value in the test with synthetic hemozoin (Table 2) is recorded as 0.4%.

`Cl.Cl.N=C(N)NN=Cc1cccc(C=NNC(=N)N)c1` [2,2′-(1,3-phenylenedimethylidyne)bis(hydrazinecarboximidamide) dihydrochloride]: the IC50 in the test on P. falciparum (setting [1]) worked out at 1000 nM. Also, the “% depol. hemoz.” value in the test on synthetic hemozoin (Table 2) came to 0.1%.

Turning to `CC(=NNC(=N)N)c1cccc(C(C)=NNC(=N)N)n1.Cl.Cl` [2,2′-(2,6-pyridinediyldiethylidyne)bis(hydrazinecarboximidamide) dihydrochloride], in the test with P. falciparum (setting [1]), the 50% inhibitory concentration (IC50) was 2000 nM. The “% depol. hemoz.” value with synthetic hemozoin (Table 2) is given as 0.0%.

Take `CC(=NNC(=N)N)c1cncc(C(C)=NNC(=N)N)c1.Cl.Cl` [2,2′-(3,5-pyridinediyldiethylidyne)bis(hydrazinecarboximidamide) dihydrochloride]: the 50% inhibitory concentration (IC50) with P. falciparum (setting [1]) was determined as 400 nM. The “% depol. hemoz.” value with synthetic hemozoin (Table 2) was 0.3%.

Take `CC(CCC1=C(CCC(C)=NNC(=N)N)C(=O)c2ccccc2C1=O)=NNC(=N)N.Cl.Cl` [2,2′-[(1,4-dihydro-1,4-dioxo-2,3-naphthalenediyl)bis(1-methyl-3-propanyl-1-ylidene)]bis(hydrazinecarboximidamide)dihydrochloride]: in the test with P. falciparum (Table 4, in culture, [3H]-hypoxanthine incorporation), the IC50 stood at 800 nM. In addition, the “% depol. hemoz.” value in the test with synthetic hemozoin (Table 4) is 0.3%.

As for `CC(=NNC(=N)N)c1cccc(C(C)=NNC(=N)N)c1N` [2,2′-[(2-amino-1,3-phenylene)diethylidyne]bis(hydrazinecarboximidamide) dihydrochloride], the IC50 in the test with P. falciparum (setting [1]) came out at 6300 nM.

On to `COc1c(C=NNC(=N)N)cc(C)cc1C=NNC(=N)N.Cl.Cl` [2,2′-[(2-methoxy-5-methyl-1,3-phenylene)dimethylidyne]bis(hydrazinecarboximidamide) dihydrochloride], for which, in the test on P. falciparum (setting [1]), the concentration for half-maximal inhibition (IC50) was 2300 nM. In addition, the “% depol. hemoz.” value in the test with synthetic hemozoin (Table 2) is listed as 2.0%.

As to `CC(=NNC(=N)N)c1cc(C(C)=NNC(=N)N)c(O)cc1O.Cl.Cl` [2,2′-[(4,6-dihydroxy-1,3-phenylene)diethylidyne]bis(hydrazinecarboximidamide) dihydrochloride], the IC50 in the test with P. falciparum (setting [1]) is 7000 nM. Moreover, the “% depol. hemoz.” value in the test on synthetic hemozoin (Table 2) was 2.6%.

Turning to `CC(=NNC(=N)N)c1ccc(O)c(C(C)=NNC(=N)N)c1.Cl.Cl` [2,2′-[(4-hydroxy-1,3-phenylene)diethylidyne]bis(hydrazinecarboximidamide) dihydrochloride], the IC50 in the test with P. falciparum (setting [1]) came to 2600 nM. Moreover, the “% depol. hemoz.” value with synthetic hemozoin (Table 2) was found to be 0.6%.

In the case of `Cl.Cl.N=C(N)NN=Cc1ccc(O)c(C=NNC(=N)N)c1` [2,2′-[(4-hydroxy-1,3-phenylene)dimethylidyne]bis(hydrazinecarboximidamide) dihydrochloride], in the test on P. falciparum (setting [1]), the concentration for half-maximal inhibition (IC50) worked out at 5500 nM. Further, the “% depol. hemoz.” value in the test on synthetic hemozoin (Table 2) is on record as 2.2%.

Take `CC(=NNC(=N)N)c1cc(N)cc(C(C)=NNC(=N)N)c1.Cl.Cl` [2,2′-[(5-amino-1,3-phenylene)diethylidyne]bis(hydrazinecarboximidamide) dihydrochloride]: the half-inhibitory concentration (IC50) in the test with P. falciparum (setting [1]) stood at 4000 nM. Also, the “% depol. hemoz.” value in the test with synthetic hemozoin (Table 2) amounted to 0.3%.

On to `CC(=NNC(=N)N)c1cc(O)cc(C(C)=NNC(=N)N)c1.Cl.Cl` [2,2′-[(5-hydroxy-1,3-phenylene)diethylidyne]bis(hydrazinecarboximidamide) dihydrochloride], for which the IC50 in the test with P. falciparum (setting [1]) stood at 1400 nM. Also, the “% depol. hemoz.” value in the test on synthetic hemozoin (Table 2) came to 0.0%.

Regarding `Cl.N=C(N)NN=Cc1c(O)ccc2ccccc12` [2-[(2-hydroxy-1-naphthyl)methylidene]hydrazinecarboximidamide monohydrochloride], in the test on P. falciparum (Plasmodium falciparum), the IC50 was 1800 nM. The “% depol. hemoz.” value in the test on synthetic hemozoin (Table 1) stood at 4.3%.

On to `CC(=NNC(=N)N)c1cccc(-c2cc(C)n(C)c(=N)n2)c1` [2-[[3-(3,4-dimethyl-2(3H)-imino-6-pyrimidinyl)phenyl]ethylidene]hydrazinecarboximidamide hydrochloride hydroiodide], for which the IC50 in the test with P. falciparum (setting [2]) turned out to be 1050 nM.

As for `Cc1c(O)c2ccccc2c2c1sc(NCCCN(CCO)CCO)[n+]2C` [2-[[3-[bis(2-hydroxyethyl)amino]propyl]imino]-1,2-dihydro-1,4-dimethylnaphtho[1,2-d]thiazol-5-ol dihydrochloride], the IC50 with P. falciparum (Plasmodium falciparum) was found to be 200 nM. Moreover, in the test on synthetic hemozoin (Table 3), the “% depol. hemoz.” value was found to be 2.9%.

On to `CC(=NNC(=N)N)c1ccc(-c2cc(C)n(C)c(=N)n2)cc1` [2-[[4-(3,4-dimethyl-2(3H)-imino-6-pyrimidinyl)phenyl]ethylidene]hydrazinecarboximidamide hydrochloride hydroiodide], for which the half-inhibitory concentration (IC50) in the test on P. falciparum (setting [2]) stood at 600 nM.

For the compound `Cl.N=C(N)NN=Cc1c(N)oc2ccc(Cl)cc2c1=O` [2-amino-3-[(aminoiminomethyl)hydrazono]methyl]-6-chloro-4H-1-benzopyran-4-one hydrochloride], the IC50 with P. falciparum (setting [2]) amounted to 3250 nM. In addition, the “% depol. hemoz.” value in the test with synthetic hemozoin (Table 1) worked out at 0.6%.

In the case of `Cc1c(O)c2ccccc2c2sc(NCCCN3CCOCC3)nc12` [4-methyl-2-[[3-(4-morpholino)propyl]amino]naphtho[1,2-d]thiazol-5-ol dihydrochloride], the 50% inhibitory concentration (IC50) in the test on P. falciparum (Table 3, naphthothiazolium salts, in culture, [3H]-hypoxanthine incorporation) was determined as 600 nM.

With `C/C(=N\NC(=N)N)c1cccc(NC(=O)CCCC(=O)Nc2cccc(/C(C)=N/NC(=N)N)c2)c1` [dihydrochloride], in the test on P. falciparum (Plasmodium falciparum), the IC50 came to 800 nM. In addition, the “% depol. hemoz.” value in the test with synthetic hemozoin (Table 4) was 0%.

As usually defined, the IC50 is the point on the concentration scale where inhibition reaches its midpoint.
